Patent US20230067378A1, “COMPOSITIONS AND METHODS FOR THE TREATMENT OF ESTROGEN-DEPENDENT DISORDERS” (ObsEva S.A., priority 2018, published 2023)

System: pre-menopausal women
Assay: uterine bleeding pattern, clinical trial of compound (VI) 200 mg per day (choline salt) with add-back therapy (1.0 mg E2, 0.5 mg norethindrone acetate)
Assay type: in vivo, human
Experimental: The experiments described in this example were conducted as part of a single-center, open-label, randomized, parallel-group clinical trial in 32 pre-menopausal women. Following screening assessments, and during the second half of the menstrual cycle, women received norethindrone (5 mg, three-times daily for 10 days) to synchronize menstrual cycles. After menstrual cycle synchronization, subjects were randomized with a 1:1 ratio to one of two treatment arms: (i) a cohort receiving once-daily administration of compound (VI) (200 mg per day, administered in the form of a choline salt) with concurrent onset of add-back therapy administration for 10 weeks (“Concurrent-ABT”), or (ii) a cohort receiving pre-treatment with compound (VI) (200 mg per day, administered in the form of a choline salt) for 4 weeks followed by combined daily administration of compound (VI) and add-back therapy (“Delayed-ABT”). The add-back therapy used in these experiments contained 1.0 mg of E2 and 0.5 mg of norethindrone acetate, and was administered to subjects once daily.
The main treatment outcomes and endpoints measured during these experiments included (i) a qualitative assessment of uterine blood loss, which was recorded on a daily basis throughout the study by characterizing each subject's bleeding pattern using one of the following four categories: “no bleeding,” “spotting” (light staining, dark blood, no sanitary protection needed or only panty liner), “bleeding” (1-4 completely soiled maxi sanitary towels or 1-8 soiled tampons or equivalent combination of the two), or “heavy bleeding” (>4 completely soiled maxi sanitary towels or >8 soiled tampons or equivalent combination of the two); (ii) a bi-weekly assessment of each subject's circulating E2 concentration; (iii) a bi-weekly assessment of each subject's circulating progesterone concentration (measured using a validated commercial chemiluminescence immunoassay method (Elecsys Progesterone III, Roche, Burgess Hill, UK)); (iv) the pharmacokinetic profile of compound (VI) and the add-back therapy; and (v) adverse events.

[1] = Days 29-42, treatment A (Concurrent-ABT), N=14
[2] = Days 29-42, treatment B (Delayed-ABT), N=15
[3] = Days 43-56, Overall (A+B), N=29
[4] = Days 43-56, treatment A (Concurrent-ABT), N=14
[5] = Days 43-56, treatment B (Delayed-ABT), N=15
[6] = Days 57-70, Overall (A+B), N=29
[7] = Days 57-70, treatment A (Concurrent-ABT), N=14
[8] = Days 57-70, treatment B (Delayed-ABT), N=15
[9] = Delayed-ABT cohort, after add-back therapy was initiated in week 5

SMILES: COc1cc(F)c(-n2c(=O)[nH]c3csc(C(=O)O)c3c2=O)cc1OCc1c(OC)ccc(F)c1F [Compound (VI), 3-[2-fluoro-5-(2,3-difluoro-6-methoxybenzyloxy)4-methoxyphenyl]-2,4-dioxo-1,2,3,4-tetrahydrothieno [3,4d]pyrimidine-5-carboxylic acid]
- No Bleeding or Spotting, subjects (n), Plasma Estradiol Level 20-50 pg/mL [1]: 9
- No Bleeding or Spotting, subjects (n), Plasma Estradiol Level <20 pg/mL [1]: 1
- No Bleeding or Spotting, subjects (n), Plasma Estradiol Level >50 pg/mL [1]: 3
- No Bleeding, subjects (%), Plasma Estradiol Level 20-50 pg/mL [1]: (50.0%)
- No Bleeding, subjects (%), Plasma Estradiol Level <20 pg/mL [1]: (7.1%)
- No Bleeding, subjects (%), Plasma Estradiol Level >50 pg/mL [1]: (21.4%)
- No Bleeding, subjects (n), Plasma Estradiol Level 20-50 pg/mL [1]: 7
- No Bleeding, subjects (n), Plasma Estradiol Level <20 pg/mL [1]: 1
- No Bleeding, subjects (n), Plasma Estradiol Level >50 pg/mL [1]: 3
- No Bleeding or Spotting, subjects (%), Plasma Estradiol Level 20-50 pg/mL [2]: (46.7%)
- No Bleeding or Spotting, subjects (%), Plasma Estradiol Level <20 pg/mL [2]: (20.0%)
- No Bleeding or Spotting, subjects (%), Plasma Estradiol Level >50 pg/mL [2]: (20.0%)
- No Bleeding or Spotting, subjects (n), Plasma Estradiol Level 20-50 pg/mL [2]: 7
- No Bleeding or Spotting, subjects (n), Plasma Estradiol Level <20 pg/mL [2]: 3
- No Bleeding or Spotting, subjects (n), Plasma Estradiol Level >50 pg/mL [2]: 3
- No Bleeding, subjects (%), Plasma Estradiol Level 20-50 pg/mL [2]: (33.3%)
- No Bleeding, subjects (%), Plasma Estradiol Level <20 pg/mL [2]: (20.0%)
- No Bleeding, subjects (%), Plasma Estradiol Level >50 pg/mL [2]: (13.3%)
- No Bleeding, subjects (n), Plasma Estradiol Level 20-50 pg/mL [2]: 5
- No Bleeding, subjects (n), Plasma Estradiol Level <20 pg/mL [2]: 3
- No Bleeding, subjects (n), Plasma Estradiol Level >50 pg/mL [2]: 2
- No Bleeding or Spotting, subjects (%), Plasma Estradiol Level 20-50 pg/mL [3]: (51.7%)
- No Bleeding or Spotting, subjects (%), Plasma Estradiol Level <20 pg/mL [3]: (13.8%)
- No Bleeding or Spotting, subjects (%), Plasma Estradiol Level >50 pg/mL [3]: (17.2%)
- No Bleeding or Spotting, subjects (n), Plasma Estradiol Level 20-50 pg/mL [3]: 15
- No Bleeding or Spotting, subjects (n), Plasma Estradiol Level <20 pg/mL [3]: 4
- No Bleeding or Spotting, subjects (n), Plasma Estradiol Level >50 pg/mL [3]: 5
- No Bleeding, subjects (%), Plasma Estradiol Level 20-50 pg/mL [3]: (37.9%)
- No Bleeding, subjects (%), Plasma Estradiol Level <20 pg/mL [3]: (10.3%)
- No Bleeding, subjects (%), Plasma Estradiol Level >50 pg/mL [3]: (13.8%)
- No Bleeding, subjects (n), Plasma Estradiol Level 20-50 pg/mL [3]: 11
- No Bleeding, subjects (n), Plasma Estradiol Level <20 pg/mL [3]: 3
- No Bleeding, subjects (n), Plasma Estradiol Level >50 pg/mL [3]: 4
- No Bleeding or Spotting, subjects (%), Plasma Estradiol Level 20-50 pg/mL [4]: (57.1%)
- No Bleeding or Spotting, subjects (%), Plasma Estradiol Level <20 pg/mL [4]: (7.1%)
- No Bleeding or Spotting, subjects (%), Plasma Estradiol Level >50 pg/mL [4]: (21.4%)
- No Bleeding or Spotting, subjects (n), Plasma Estradiol Level 20-50 pg/mL [4]: 8
- No Bleeding or Spotting, subjects (n), Plasma Estradiol Level <20 pg/mL [4]: 1
- No Bleeding or Spotting, subjects (n), Plasma Estradiol Level >50 pg/mL [4]: 3
- No Bleeding, subjects (%), Plasma Estradiol Level 20-50 pg/mL [4]: (50.0%)
- No Bleeding, subjects (%), Plasma Estradiol Level <20 pg/mL [4]: (7.1%)
- No Bleeding, subjects (%), Plasma Estradiol Level >50 pg/mL [4]: (21.4%)
- No Bleeding, subjects (n), Plasma Estradiol Level 20-50 pg/mL [4]: 7
- No Bleeding, subjects (n), Plasma Estradiol Level <20 pg/mL [4]: 1
- No Bleeding, subjects (n), Plasma Estradiol Level >50 pg/mL [4]: 3
- No Bleeding or Spotting, subjects (%), Plasma Estradiol Level 20-50 pg/mL [5]: (46.7%)
- No Bleeding or Spotting, subjects (%), Plasma Estradiol Level <20 pg/mL [5]: (20.0%)
- No Bleeding or Spotting, subjects (%), Plasma Estradiol Level >50 pg/mL [5]: (13.3%)
- No Bleeding or Spotting, subjects (n), Plasma Estradiol Level 20-50 pg/mL [5]: 7
- No Bleeding or Spotting, subjects (n), Plasma Estradiol Level <20 pg/mL [5]: 7
- No Bleeding or Spotting, subjects (n), Plasma Estradiol Level >50 pg/mL [5]: 2
- No Bleeding, subjects (%), Plasma Estradiol Level 20-50 pg/mL [5]: (26.7%)
- No Bleeding, subjects (%), Plasma Estradiol Level <20 pg/mL [5]: (13.3%)
- No Bleeding, subjects (%), Plasma Estradiol Level >50 pg/mL [5]: (6.7%)
- No Bleeding, subjects (n), Plasma Estradiol Level 20-50 pg/mL [5]: 4
- No Bleeding, subjects (n), Plasma Estradiol Level <20 pg/mL [5]: 2
- No Bleeding, subjects (n), Plasma Estradiol Level >50 pg/mL [5]: 1
- No Bleeding or Spotting, subjects (%), Plasma Estradiol Level 20-50 pg/mL [6]: (48.3%)
- No Bleeding or Spotting, subjects (%), Plasma Estradiol Level <20 pg/mL [6]: (20.7%)
- No Bleeding or Spotting, subjects (%), Plasma Estradiol Level >50 pg/mL [6]: (13.8%)
- No Bleeding or Spotting, subjects (n), Plasma Estradiol Level 20-50 pg/mL [6]: 14
- No Bleeding or Spotting, subjects (n), Plasma Estradiol Level <20 pg/mL [6]: 6
- No Bleeding or Spotting, subjects (n), Plasma Estradiol Level >50 pg/mL [6]: 4
- No Bleeding, subjects (%), Plasma Estradiol Level 20-50 pg/mL [6]: (41.4%)
- No Bleeding, subjects (%), Plasma Estradiol Level <20 pg/mL [6]: (20.7%)
- No Bleeding, subjects (%), Plasma Estradiol Level >50 pg/mL [6]: (10.3%)
- No Bleeding, subjects (n), Plasma Estradiol Level 20-50 pg/mL [6]: 12
- No Bleeding, subjects (n), Plasma Estradiol Level <20 pg/mL [6]: 6
- No Bleeding, subjects (n), Plasma Estradiol Level >50 pg/mL [6]: 3
- No Bleeding or Spotting, subjects (%), Plasma Estradiol Level 20-50 pg/mL [7]: (50.0%)
- No Bleeding or Spotting, subjects (%), Plasma Estradiol Level <20 pg/mL [7]: (21.4%)
- No Bleeding or Spotting, subjects (%), Plasma Estradiol Level >50 pg/mL [7]: (21.4%)
- No Bleeding or Spotting, subjects (n), Plasma Estradiol Level 20-50 pg/mL [7]: 7
- No Bleeding or Spotting, subjects (n), Plasma Estradiol Level <20 pg/mL [7]: 3
- No Bleeding or Spotting, subjects (n), Plasma Estradiol Level >50 pg/mL [7]: 3
- No Bleeding, subjects (%), Plasma Estradiol Level 20-50 pg/mL [7]: (42.9%)
- No Bleeding, subjects (%), Plasma Estradiol Level <20 pg/mL [7]: (21.4%)
- No Bleeding, subjects (%), Plasma Estradiol Level >50 pg/mL [7]: (21.4%)
- No Bleeding, subjects (n), Plasma Estradiol Level 20-50 pg/mL [7]: 6
- No Bleeding, subjects (n), Plasma Estradiol Level <20 pg/mL [7]: 3
- No Bleeding, subjects (n), Plasma Estradiol Level >50 pg/mL [7]: 3
- No Bleeding or Spotting, subjects (%), Plasma Estradiol Level 20-50 pg/mL [8]: (46.7%)
- No Bleeding or Spotting, subjects (%), Plasma Estradiol Level <20 pg/mL [8]: (20.0%)
- No Bleeding or Spotting, subjects (%), Plasma Estradiol Level >50 pg/mL [8]: (6.7%)
- No Bleeding or Spotting, subjects (n), Plasma Estradiol Level 20-50 pg/mL [8]: 7
- No Bleeding or Spotting, subjects (n), Plasma Estradiol Level <20 pg/mL [8]: 3
- No Bleeding or Spotting, subjects (n), Plasma Estradiol Level >50 pg/mL [8]: 1
- No Bleeding, subjects (%), Plasma Estradiol Level 20-50 pg/mL [8]: (40.0%)
- No Bleeding, subjects (%), Plasma Estradiol Level <20 pg/mL [8]: (20.0%)
- No Bleeding, subjects (%), Plasma Estradiol Level >50 pg/mL [8]: (0.0%)
- No Bleeding, subjects (n), Plasma Estradiol Level 20-50 pg/mL [8]: 6
- No Bleeding, subjects (n), Plasma Estradiol Level <20 pg/mL [8]: 3
- No Bleeding, subjects (n), Plasma Estradiol Level >50 pg/mL [8]: 0
- uterine bleeding / amenorrhea (Delayed-ABT cohort, Compound (VI) alone (first 4 weeks), FIG. 1A): amenorrhea in all subjects by week 5
- bleeding, frequency [9]: ≤ 8%
- spotting, frequency [9]: ≤ 11%
- women in amenorrhea within 5 days of treatment (Delayed-ABT group): ~20%
- women in amenorrhea (Delayed-ABT group, last 4 weeks of treatment, p=0.03): 40%
- Uterine Bleeding Pattern: amenorrhea (Delayed-ABT, Weeks 2-4, achieved in week 5): almost 100% amenorrhea (achieved in week 5)
- Uterine Bleeding Pattern: onset of spotting and bleeding (Delayed-ABT, Weeks 6-10): Spotting and bleeding began after 1 week of add-
